Assay results: US20250177115A1, “COMBINATORIAL THERAPIES INCLUDING IMPLANTABLE DAMPING DEVICES AND THERAPEUTIC AGENTS FOR TREATING A CONDITION AND ASSOCIATED SYSTEMS AND METHODS OF USE” (THE BRAIN PROTECTION COMPANY PTY LTD, priority 2021, published 2025)

Test system: TAC mice
Assay: Cognition (Y Maze, exploratory behaviour)
Format: in vivo
Protocol: FIG. 24 is a dot plot showing the % alterations in a Y maze in mice with an absorbable suture versus a plain suture, with and without treatment according to some embodiments. Measurement of the number of alternations within the 3 arms of a Y-Maze according to the following formula: % alternation=(total alternations/(total entries−2)×100).
Cognition (Y Maze—exploratory behaviour). Cognition was measured according to the number of behavior alterations within the three (3) arms of a Y Maze, as shown in FIGS. 23-24.

## CCCCCCCCc1ccc(CCC(N)(CO)CO)cc1 [Fingolimod, fingolimod]
Treated absorbable suture group, SEM=3.556, n=7
  mean % alteration in a Y maze: 61.396%
Treated plain suture group, SEM=2.644, n=12
  mean % alteration in a Y maze: 70.296%
